Counter-ions that a name gives are not always drawn. Like-named read-outs stand apart in the source and are kept apart here. Where a SMILES comes first, the peptide text is derived from it. The star is where a group is joined. Cbz = O=C(OCc1ccccc1)*
Assays:
[1] = target: T1, SARS-CoV-2 PLpro (nsp3 1564–1878) (Severe acute respiratory syndrome coronavirus 2, UniProt P0DTD1); test: biochemical; parameters: FRET-quenched peptide (Pro3) cleavage by PLpro, 10 min pre-incubation, slope over 20 min, normalised to no-compound control; conditions: high concentration screen, read-out: % of control remaining
[2] = target: T1, SARS-CoV-2 PLpro (nsp3 1564–1878); test: biochemical; parameters: FRET-quenched peptide (Pro3) cleavage by PLpro, 10 min pre-incubation, slope over 20 min, normalised to no-compound control; conditions: low concentration screen, read-out: % of control remaining

Q: For `C=CCN1CC[C@]23CCCC[C@H]2[C@H]1Cc1ccc(O)cc13` [Levallorphan], which remaining activity at 3.75 µM ([1]; Well no.=1702) is on record?
A: 103%

Q: What about the remaining activity at 1.25 µM ([2]; Well no.=1702) of the same compound?
A: 106%

Q: With `CCOc1ccc(-n2c([C@@H](C)N(Cc3cccnc3)C(=O)Cc3ccc(F)c(C(F)(F)F)c3)nc3ncccc3c2=O)cc1` [NBI-74330] as the compound, how does the remaining activity at 3.75 µM ([1]; Well no.=8611) read?
A: 97.8%

Q: What about the remaining activity at 1.25 µM ([2]; Well no.=8611) of the same compound?
A: 108%

Q: What does the source list for `CCCCn1c(=O)c2c(ncn2CC(C)=O)n(CCCC)c1=O` [Denbufylline]?
A: remaining activity at 3.75 µM ([1]; Well no.=1765): 99.8%; remaining activity at 1.25 µM ([2]; Well no.=1765): 102%

Q: With `O=C(Nc1ccccc1)N1CCN(c2nc(-c3ccccc3)ns2)CC1` [JNJ 1661010] as the compound, how does the remaining activity at 3.75 µM ([1]; Well no.=5167) read?
A: 104%

Q: And the remaining activity at 1.25 µM ([2]; Well no.=5167)?
A: 98.1%

Q: Which results are given for `CCOC(=O)[C@H](CCc1ccccc1)N[C@H]1CCc2ccccc2N(CC(=O)O)C1=O` [Benazepril (hydrochloride)]?
A: remaining activity at 3.75 µM ([1]; Well no.=7786): 104%; remaining activity at 1.25 µM ([2]; Well no.=7786): 104%

Q: Which results are given for `C#CCOC(=O)C1=CCCN(C)C1` [Arecaidine propargyl ester hydrobromide]?
A: remaining activity at 3.75 µM ([1]; Well no.=254): 98.4%; remaining activity at 1.25 µM ([2]; Well no.=254): 97.1%

Q: Which remaining activity at 3.75 µM ([1]; Well no.=4877) does the source give for `O=C(/C=C/c1ccccc1)NC(NC(=S)Nc1cccc2cccnc12)C(Cl)(Cl)Cl` (stereo not drawn) [Salubrinal] here?
A: 99.5%

Q: What about the remaining activity at 1.25 µM ([2]; Well no.=4877) of the same compound?
A: 98.9%

Q: Which results are given for `CCCCC[C@@H](/C=C/C=C\CCCCCCCCCC(=O)O)OO` [15(S)-HPEDE]?
A: remaining activity at 3.75 µM ([1]; Well no.=4333): 105%; remaining activity at 1.25 µM ([2]; Well no.=4333): 108%

Q: What does the source list for `NCCCP(=O)(O)O` [3-Aminopropylphosphonic acid]?
A: remaining activity at 3.75 µM ([1]; Well no.=357): 93.7%; remaining activity at 1.25 µM ([2]; Well no.=357): 90.6%

Q: For `Clc1ccc(C(Cn2ccnc2)OCc2csc3c(Cl)cccc23)c(Cl)c1` (stereo not drawn) [Sertaconazole], which remaining activity at 3.75 µM ([1]; Well no.=1840) is on record?
A: 98.3%

Q: And the remaining activity at 1.25 µM ([2]; Well no.=1840)?
A: 101%

Q: `COc1cc(=O)n(C)c2c(OCC(O)C(C)(C)O)cccc12` (stereo not drawn) [Foliosidine] was tested. Which remaining activity at 3.75 µM ([1]; Well no.=565) did it give?
A: 97.8%

Q: What about the remaining activity at 1.25 µM ([2]; Well no.=565) of the same compound?
A: 104%

Q: How did the remaining activity at 3.75 µM ([1]; Well no.=8508) turn out when `COC(=O)[C@H](CCSC)NC(=O)c1ccc(NC[C@@H](N)CS)cc1-c1ccccc1` [FTI-277 (hydrochloride)] was run?
A: 102%

Q: And the remaining activity at 1.25 µM ([2]; Well no.=8508)?
A: 101%

Q: With `O=C(O)c1cc(O)cc(O)c1` [3,5-Dihydroxybenzoic acid] as the compound, how does the remaining activity at 3.75 µM ([1]; Well no.=6829) read?
A: 117%

Q: What about the remaining activity at 1.25 µM ([2]; Well no.=6829) of the same compound?
A: 101%

Q: `OC(CCN1CCCCC1)(c1ccccc1)C1C[C@@H]2C=C[C@H]1C2` (stereo partly drawn) [Biperiden (Hydrochloride)] was tested. Which remaining activity at 3.75 µM ([1]; Well no.=7434) did it give?
A: 100%

Q: What about the remaining activity at 1.25 µM ([2]; Well no.=7434) of the same compound?
A: 97.8%

Q: How did the remaining activity at 3.75 µM ([1]; Well no.=1954) turn out when `C#C[C@]1(O)CC[C@H]2[C@@H]3[C@H](C)CC4=C(CCC(=O)C4)[C@H]3CC[C@@]21C` [Tibolone] was run?
A: 98.3%

Q: And the remaining activity at 1.25 µM ([2]; Well no.=1954)?
A: 97.8%

Q: With `CCCCC[C@H](O)/C=C/[C@@H]1[C@@H](C/C=C\CCCC(=O)O)[C@H](O)C[C@H]1O` (racemic) as the compound, how does the remaining activity at 3.75 µM ([1]; Well no.=4479) read?
A: 101%

Q: And the remaining activity at 1.25 µM ([2]; Well no.=4479)?
A: 101%

Q: Which remaining activity at 3.75 µM ([1]; Well no.=2685) does the source give for `CCCCn1c2ccc(O)cc2c2c3c(c(-c4ccccc4Cl)cc21)C(=O)NC3=O` [Wee1 Inhibitor II] here?
A: 88.5%

Q: What about the remaining activity at 1.25 µM ([2]; Well no.=2685) of the same compound?
A: 90.9%

Q: How did the remaining activity at 3.75 µM ([1]; Well no.=6230) turn out when `CCC(=O)NC[C@@H]1C[C@H]1c1cccc2c1CCO2` [Tasimelteon] was run?
A: 99%

Q: What about the remaining activity at 1.25 µM ([2]; Well no.=6230) of the same compound?
A: 97.6%

Q: `CN(C)CC/C=C1/c2ccccc2COc2ccc(CC(=O)O)cc21` [Olopatadine (hydrochloride)] was tested. Which remaining activity at 3.75 µM ([1]; Well no.=8201) did it give?
A: 102%

Q: What about the remaining activity at 1.25 µM ([2]; Well no.=8201) of the same compound?
A: 104%

Q: Which results are given for `CCN1C(=O)/C(=C/c2ccccc2)SC1=S` [BTR-1]?
A: remaining activity at 3.75 µM ([1]; Well no.=7124): 95.2%; remaining activity at 1.25 µM ([2]; Well no.=7124): 99.8%

Q: Which results are given for `COc1ccc(N2CCOCC2)c2sc(NC(=O)N3CCC(C)(O)CC3)nc12` [Tozadenant]?
A: remaining activity at 3.75 µM ([1]; Well no.=7049): 100%; remaining activity at 3.75 µM ([1]; Well no.=8115): 102%; remaining activity at 1.25 µM ([2]; Well no.=7049): 103%; remaining activity at 1.25 µM ([2]; Well no.=8115): 99%

Q: Which results are given for `COc1ccc2[nH]cc(C3=CCNCC3)c2c1` [RU 24969]?
A: remaining activity at 3.75 µM ([1]; Well no.=7997): 102%; remaining activity at 1.25 µM ([2]; Well no.=7997): 104%

Q: How did the remaining activity at 3.75 µM ([1]; Well no.=65) turn out when `NC(CCCP(=O)(O)O)C(=O)O` (racemic) was run?
A: 97.5%

Q: What about the remaining activity at 1.25 µM ([2]; Well no.=65) of the same compound?
A: 103%

Q: Which results are given for `Cn1c(=O)c2c(ncn2CC2OCCO2)n(C)c1=O` [Doxofylline]?
A: remaining activity at 3.75 µM ([1]; Well no.=2020): 99.1%; remaining activity at 3.75 µM ([1]; Well no.=8323): 94.2%; remaining activity at 1.25 µM ([2]; Well no.=2020): 100%; remaining activity at 1.25 µM ([2]; Well no.=8323): 99.7%

Q: With `CCCCOc1ccc(C(=O)Nc2ccc(F)cc2F)cc1` [VU 0357121] as the compound, how does the remaining activity at 3.75 µM ([1]; Well no.=4932) read?
A: 98.8%

Q: And the remaining activity at 3.75 µM ([1]; Well no.=7857)?
A: 107%

Q: And the remaining activity at 1.25 µM ([2]; Well no.=4932)?
A: 99.8%

Q: And the remaining activity at 1.25 µM ([2]; Well no.=7857)?
A: 105%

Q: Which remaining activity at 3.75 µM ([1]; Well no.=3163) does the source give for `c1ccc2c3c([nH]c2c1)[C@H]1[C@@H]2CC[C@@H]([C@@H]4CCCN[C@@H]42)N1CC3` here?
A: 103%

Q: What about the remaining activity at 1.25 µM ([2]; Well no.=3163) of the same compound?
A: 105%

Q: For `CC(C)NCC(O)COc1ccc(COCCOC(C)C)cc1` (stereo not drawn) [Bisoprolol], which remaining activity at 3.75 µM ([1]; Well no.=5109) is on record?
A: 98.6%

Q: What about the remaining activity at 1.25 µM ([2]; Well no.=5109) of the same compound?
A: 96.8%

Q: With `Cc1c([C@H](C)[C@@H]2NC[C@@H](C)C[C@H]2O)ccc2c1C[C@H]1[C@H]2CC=C2C[C@@H](O)CC[C@@]21C` [Veratramine] as the compound, how does the remaining activity at 3.75 µM ([1]; Well no.=3280) read?
A: 102%

Q: What about the remaining activity at 1.25 µM ([2]; Well no.=3280) of the same compound?
A: 102%

Q: For `CC12CC3CC(C)(C1)CC(N)(C3)C2` [Memantine hydrochloride], which remaining activity at 3.75 µM ([1]; Well no.=1083) is on record?
A: 99.3%

Q: What about the remaining activity at 1.25 µM ([2]; Well no.=1083) of the same compound?
A: 97.8%

Q: `CN(C)CCN1C(=O)c2cccc3cc(NC(N)=O)cc(c23)C1=O` [UNBS5162] was tested. Which remaining activity at 3.75 µM ([1]; Well no.=6953) did it give?
A: 98%

Q: What about the remaining activity at 3.75 µM ([1]; Well no.=8453) of the same compound?
A: 112%

Q: And the remaining activity at 1.25 µM ([2]; Well no.=6953)?
A: 98.3%

Q: What about the remaining activity at 1.25 µM ([2]; Well no.=8453) of the same compound?
A: 109%

Q: Which remaining activity at 3.75 µM ([1]; Well no.=2057) does the source give for `Cc1onc(-c2ccccc2)c1C(=O)N[C@@H]1C(=O)N2[C@@H]1SC(C)(C)[C@@H]2C(=O)O` [Oxacillin] here?
A: 103%

Q: And the remaining activity at 1.25 µM ([2]; Well no.=2057)?
A: 105%

Q: `O=C(O)CO` [Glycolic acid] was tested. Which remaining activity at 3.75 µM ([1]; Well no.=6981) did it give?
A: 98.4%

Q: What about the remaining activity at 1.25 µM ([2]; Well no.=6981) of the same compound?
A: 97.8%

Q: Which remaining activity at 3.75 µM ([1]; Well no.=8516) does the source give for `CC[C@H](C)[C@H](NC(=O)OCc1ccccc1)C(=O)N[C@@H](CCC(=O)O)C(=O)N1CCC[C@H]1C(=O)N[C@@H](Cc1ccccc1)C(=O)OC` [CH 5450] (Cbz-IEPF-OMe) here?
A: 102%

Q: What about the remaining activity at 1.25 µM ([2]; Well no.=8516) of the same compound?
A: 101%

Q: `N[C@@H](Cc1ccc(F)cc1)C(=O)O` [p-Fluoro-L-phenylalanine] was tested. Which remaining activity at 3.75 µM ([1]; Well no.=707) did it give?
A: 87%

Q: And the remaining activity at 1.25 µM ([2]; Well no.=707)?
A: 95.3%

Q: Which results are given for `C[N+](C)(C)CCOP(=O)(O)OP(=O)([O-])OC[C@H]1O[C@@H](n2ccc(N)nc2=O)[C@H](O)[C@@H]1O` [Citicoline]?
A: remaining activity at 3.75 µM ([1]; Well no.=8931): 88.7%; remaining activity at 1.25 µM ([2]; Well no.=8931): 89%

Source: publication PMC8286840, “Identifying SARS-CoV-2 antiviral compounds by screening for small molecule inhibitors of Nsp3 papain-like protease” (Biochemical Journal, 2021)
